Experimental data as given in ChEMBL document CHEMBL3885881, “DrugMatrix”.

Organism: Rattus norvegicus
Experiment: DrugMatrix - Regimen: Daily Repeat
Type: toxicity, organism-based, Sprague-Dawley
Parameters: regimen Daily Repeat, gender Male, age 6-8 weeks
Settings: in vivo, po, route oral GAVAGE, vehicle 100 % WATER; for ABSOLUTE BASOPHIL / ABSOLUTE EOSINOPHIL / ABSOLUTE LYMPHOCYTE / ABSOLUTE MONOCYTE / ABSOLUTE SEGMENTED NEUTROPHIL / BASOPHIL / EOSINOPHIL / ERYTHROCYTE COUNT / HEMATOCRIT / HEMOGLOBIN / LEUKOCYTE COUNT / LYMPHOCYTE / MEAN CORPUSCULAR HEMOGLOBIN / MEAN CORPUSCULAR HEMOGLOBIN CONCENTRATION / MEAN CORPUSCULAR VOLUME / MONOCYTE / NEUTROPHIL / NUCLEATED RED BLOOD CELLS / PLATELET COUNT: tissue Blood; for ALANINE AMINOTRANSFERASE / ALBUMIN / ALKALINE PHOSPHATASE / ASPARTATE AMINOTRANSFERASE / BLOOD UREA NITROGEN / CARBON DIOXIDE / CHLORIDE / CHOLESTEROL / CREATINE PHOSPHOKINASE / CREATININE / GLUCOSE / LACTATE DEHYDROGENASE / LIPASE / PHOSPHORUS / POTASSIUM / SODIUM / TOTAL BILIRUBIN / TOTAL PROTEIN / URIC ACID: tissue Plasma
[1] = 0 mg/kg, 72 h, dose level Control, time 3 day
[2] = 0 mg/kg, 120 h, dose level Control, time 5 day
[3] = 56 mg/kg, 72 h, dose level Low, time 3 day

CC[C@H]1OC(=O)[C@H](C)[C@@H](O[C@H]2C[C@@](C)(OC)[C@@H](O)[C@H](C)O2)[C@H](C)[C@@H](O[C@@H]2O[C@H](C)C[C@H](N(C)C)[C@H]2O)[C@](C)(OC)C[C@@H](C)C(=O)[C@H](C)[C@@H](O)[C@]1(C)O [CLARITHROMYCIN]
ABSOLUTE BASOPHIL [1]: 0 CELLS/uL
ABSOLUTE EOSINOPHIL [1]: 91.5 CELLS/uL
ABSOLUTE LYMPHOCYTE [1]: 14108.83 CELLS/uL
ABSOLUTE MONOCYTE [1]: 81 CELLS/uL
ABSOLUTE SEGMENTED NEUTROPHIL [1]: 818.67 CELLS/uL
BASOPHIL [1]: 0%
EOSINOPHIL [1]: 0.67%
ERYTHROCYTE COUNT [1]: 5.56 x10E6/uL
HEMATOCRIT [1]: 34.5%
HEMOGLOBIN [1]: 13.45 G/DL
LEUKOCYTE COUNT [1]: 15.1 x10E3/uL
LYMPHOCYTE [1]: 93%
MEAN CORPUSCULAR HEMOGLOBIN [1]: 24.2 pg
MEAN CORPUSCULAR HEMOGLOBIN CONCENTRATION [1]: 38.98 G/DL
MEAN CORPUSCULAR VOLUME [1]: 62.07 fL
MONOCYTE [1]: 0.5%
NEUTROPHIL [1]: 5.83%
NUCLEATED RED BLOOD CELLS [1]: 0 /100WBC
PLATELET COUNT [1]: 1193.33 x10E3/uL
ALANINE AMINOTRANSFERASE [1]: 60.33 u/L
ALBUMIN [1]: 4 G/DL
ALKALINE PHOSPHATASE [1]: 334.83 u/L
ASPARTATE AMINOTRANSFERASE [1]: 74.5 u/L
BLOOD UREA NITROGEN [1]: 13.5 mg/dL
CARBON DIOXIDE [1]: 30.33 mmol/L
CHLORIDE [1]: 98.33 MEQ/L
CHOLESTEROL [1]: 71.17 mg/dL
CREATINE PHOSPHOKINASE [1]: 212 u/L
CREATININE [1]: 0.21 mg/dL
GLUCOSE [1]: 173.17 mg/dL
LACTATE DEHYDROGENASE [1]: 101.5 u/L
LIPASE [1]: 24.17 u/L
PHOSPHORUS [1]: 10.87 mg/dL
POTASSIUM [1]: 6.06 MEQ/L
SODIUM [1]: 140.58 MEQ/L
TOTAL BILIRUBIN [1]: 0.17 mg/dL
TOTAL PROTEIN [1]: 5.9 G/DL
URIC ACID [1]: 1.23 mg/dL
ABSOLUTE BASOPHIL [2]: 0 CELLS/uL
ABSOLUTE EOSINOPHIL [2]: 34.5 CELLS/uL
ABSOLUTE LYMPHOCYTE [2]: 8181 CELLS/uL
ABSOLUTE MONOCYTE [2]: 82.67 CELLS/uL
ABSOLUTE SEGMENTED NEUTROPHIL [2]: 435.17 CELLS/uL
BASOPHIL [2]: 0%
EOSINOPHIL [2]: 0.5%
ERYTHROCYTE COUNT [2]: 5.31 x10E6/uL
HEMATOCRIT [2]: 33.83%
HEMOGLOBIN [2]: 13.37 G/DL
LEUKOCYTE COUNT [2]: 8.73 x10E3/uL
LYMPHOCYTE [2]: 93.5%
MEAN CORPUSCULAR HEMOGLOBIN [2]: 25.2 pg
MEAN CORPUSCULAR HEMOGLOBIN CONCENTRATION [2]: 39.53 G/DL
MEAN CORPUSCULAR VOLUME [2]: 63.73 fL
MONOCYTE [2]: 1%
NEUTROPHIL [2]: 5%
NUCLEATED RED BLOOD CELLS [2]: 0 /100WBC
PLATELET COUNT [2]: 1057.33 x10E3/uL
ALANINE AMINOTRANSFERASE [2]: 54.33 u/L
ALBUMIN [2]: 4.07 G/DL
ALKALINE PHOSPHATASE [2]: 308.67 u/L
ASPARTATE AMINOTRANSFERASE [2]: 83.17 u/L
BLOOD UREA NITROGEN [2]: 14 mg/dL
CARBON DIOXIDE [2]: 34 mmol/L
CHLORIDE [2]: 98 MEQ/L
CHOLESTEROL [2]: 71.33 mg/dL
CREATINE PHOSPHOKINASE [2]: 266.5 u/L
CREATININE [2]: 0.27 mg/dL
GLUCOSE [2]: 133 mg/dL
LACTATE DEHYDROGENASE [2]: 127 u/L
LIPASE [2]: 11.67 u/L
PHOSPHORUS [2]: 10.6 mg/dL
POTASSIUM [2]: 6.17 MEQ/L
SODIUM [2]: 142.68 MEQ/L
TOTAL BILIRUBIN [2]: 0.15 mg/dL
TOTAL PROTEIN [2]: 6.03 G/DL
URIC ACID [2]: 0.75 mg/dL
ABSOLUTE BASOPHIL [3]: 0 CELLS/uL
ABSOLUTE EOSINOPHIL [3]: 59.33 CELLS/uL
ABSOLUTE LYMPHOCYTE [3]: 13806.33 CELLS/uL
ABSOLUTE MONOCYTE [3]: 0 CELLS/uL
ABSOLUTE SEGMENTED NEUTROPHIL [3]: 1301 CELLS/uL
BASOPHIL [3]: 0%
EOSINOPHIL [3]: 0.33%
ERYTHROCYTE COUNT [3]: 5.56 x10E6/uL
HEMATOCRIT [3]: 35.47%
HEMOGLOBIN [3]: 13.53 G/DL
LEUKOCYTE COUNT [3]: 15.17 x10E3/uL
LYMPHOCYTE [3]: 91.67%
MEAN CORPUSCULAR HEMOGLOBIN [3]: 24.37 pg
MEAN CORPUSCULAR HEMOGLOBIN CONCENTRATION [3]: 38.2 G/DL
MEAN CORPUSCULAR VOLUME [3]: 63.77 fL
MONOCYTE [3]: 0%
NEUTROPHIL [3]: 8%
NUCLEATED RED BLOOD CELLS [3]: 0 /100WBC
PLATELET COUNT [3]: 1156.33 x10E3/uL
ALANINE AMINOTRANSFERASE [3]: 46.33 u/L
ALBUMIN [3]: 4.03 G/DL
ALKALINE PHOSPHATASE [3]: 259.67 u/L
ASPARTATE AMINOTRANSFERASE [3]: 70.67 u/L
BLOOD UREA NITROGEN [3]: 12.33 mg/dL
CARBON DIOXIDE [3]: 30.33 mmol/L
CHLORIDE [3]: 99.67 MEQ/L
CHOLESTEROL [3]: 68.33 mg/dL
CREATINE PHOSPHOKINASE [3]: 185.33 u/L
CREATININE [3]: 0.19 mg/dL
GLUCOSE [3]: 143.67 mg/dL
LACTATE DEHYDROGENASE [3]: 137.33 u/L
LIPASE [3]: 10.67 u/L
PHOSPHORUS [3]: 10.87 mg/dL
POTASSIUM [3]: 6.51 MEQ/L
SODIUM [3]: 141.97 MEQ/L
TOTAL BILIRUBIN [3]: 0.2 mg/dL
TOTAL PROTEIN [3]: 5.93 G/DL
URIC ACID [3]: 1.4 mg/dL
